Values after ≈ are worked out from the molar mass of the structure shown. Bridge positions count the residues as written; N and C are the ends. Square brackets hold non-standard residues; d marks the D form. Ends that are not written are not given here. Peptide text beside a SMILES is read from it. I, II: the chains in the order shown. Ahx = NCCCCCC(=O)O
What was measured:
[1] = system: Staphylococcus aureus ATCC 33591 (resistant); conditions: S. aureus ATCC 33591, resistant strain; MIC50 previously obtained with the same assay (M7-A7); ref Leon-Calvijo et al., 2015; cited from earlier work
From the text: Table 6 Therapeutic Index values for the RRWQWR-based peptides against the ATCC strains of HCAI-relevant bacteria. | column: Gram positive / MIC (μM) / ^e33591-^fR

[2] = system: Klebsiella pneumonia ATCC 13883 (sensitive); conditions: K. pneumoniae ATCC 13883, sensitive strain; MIC50 previously obtained with the same assay (M7-A7); ref Leon-Calvijo et al., 2015; cited from earlier work
From the text: Table 6 Therapeutic Index values for the RRWQWR-based peptides against the ATCC strains of HCAI-relevant bacteria. | column: Gram negative / MIC (μM) / ^k13883-^cS

[3] = system: Gram-positive ATCC strains (E. faecalis 29212, S. aureus 25923 and 33591); assay: Therapeutic index, Gram-positive ATCC strains; conditions: for Fold (GM peptide / GM tetrameric peptide): Gram-positive ATCC strains; for Gm, geometric mean of MIC50 values: Gram-positive ATCC strains 29212, 25923, 33591
From the text: We determined the therapeutic index of each peptide, which we defined as the ratio of Maximum Hemolytic Activity (Hmax) to MIC50 (Hmax/MIC50).
The therapeutic index (TI) is a ratio of the toxic dose of a substance to its therapeutically-active dose and can be calculated different ways (e.g., LD50/ED50). Here, we calculated a TI value for each peptide against all the Gram-positive or the Gram-negative ATCC strains, by dividing its Hmax by its MIC50 for the given group of strains. […] Additionally, to make our quantitative analysis more robust [geometric mean (Khachatryan et al., [2017]) and fold values], we have included MIC50 values for these peptides against S. aureus and K. pneumoniae that we previously obtained using the same assay, the M7-A7 method of the National Committee for Clinical Laboratory Standards (Leon-Calvijo et al., [2015]).

[4] = system: E. faecalis ATCC-29212 (sensitive); assay: Scanning electron microscopy of treated bacteria; format: cell-based, Enterococcus faecalis; conditions: 3 × MIC50, 2 h, 37°C
Description: (§1) We observed bacterial morphology by SEM. The E. faecalis and P. aeruginosa strains were grown to mid-logarithmic phase, and adjusted spectrophotometrically to a McFarland standard of 0.5 (corresponding to ~1 × 10^8 CFU/mL). Subsequently, 1 mL of bacterial suspension was distributed into three tubes: one tube was treated with (RRWQWR)2KAhx at 3 × the MIC50; another tube, with (RRWQWR)4K2Ahx2C2 at the same concentration; and the third tube was left untreated, as a control. The samples were incubated aerobically at 37°C for 2 h, and the bacterial suspensions were centrifuged at 1,459 × g for 3 min and then, washed twice with Millonig's Phosphate Buffer (0.10 M, pH 7.4). For SEM, each sample was fixed with 1 mL of 2.5% glutaraldehyde at 4°C for 2 h. The fixed samples were dehydrated in an ethanol gradient (50, 70, 80, 90, and 100%) for 20 min and then, centrifuged at 1,459 × g for 10 min. The bacterial pellet was resuspended in 100% ethyl alcohol and air-dried. Finally, the slides were taped onto stubs, coated with gold using a Quorum Q150R sputter coater, and observed with an FEI Quanta 200-r microscope.
We used SEM to study the morphology of bacterial cells before and after treatment with either branched peptide (dimeric and tetrameric). […]

[5] = system: P. aeruginosa ATCC-27853 (resistant); assay: Scanning electron microscopy of treated bacteria; format: cell-based, Pseudomonas aeruginosa; conditions: 3 × MIC50, 2 h, 37°C
Description: as §1
(§2) We used SEM to study the morphology of bacterial cells before and after treatment with either branched peptide (dimeric and tetrameric). To this end, each strain of E. faecalis and P. aeruginosa was first studied by SEM; then, independently treated in the exponential phase with either peptide at 3 × the corresponding MIC50 value for 2 h (except for the resistant E. faecalis strain, for which a peptide concentration of 200 μM was used); and finally, studied by SEM again.

[6] = system: P. aeruginosa ATCC-10145 (sensitive); assay: Scanning electron microscopy of treated bacteria; format: cell-based, Pseudomonas aeruginosa; conditions: 3 × MIC50, 2 h, 37°C
Description: as §1, §2

[7] = system: Staphylococcus aureus ATCC 25923 (sensitive); conditions: S. aureus ATCC 25923, sensitive strain; MIC50 previously obtained with the same assay (M7-A7); ref Leon-Calvijo et al., 2015; cited from earlier work
From the text: Table 6 Therapeutic Index values for the RRWQWR-based peptides against the ATCC strains of HCAI-relevant bacteria. | column: Gram positive / MIC (μM) / ^d25923-^cS

[8] = system: Klebsiella pneumoniae ATCC 700603 (resistant); conditions: K. pneumoniae ATCC 700603, resistant strain; MIC50 previously obtained with the same assay (M7-A7); ref Leon-Calvijo et al., 2015; cited from earlier work
From the text: Table 6 Therapeutic Index values for the RRWQWR-based peptides against the ATCC strains of HCAI-relevant bacteria. | column: Gram negative / MIC (μM) / ^l700603-^fR

[9] = system: ATCC reference strains; assay: Antibacterial activity against the ATCC reference strains, overall; format: cell-based; conditions: against the ATCC reference strains of E. faecalis and P. aeruginosa, all strains together
Description: We screened all five peptides against the ATCC reference strains and the clinical isolates according to Method M7-A7 of the National Committee for Clinical Laboratory Standards (CLSI, [2007]). The MIC50 and MBC values were determined using a broth microdilution and growth inhibition method previously reported by Leon-Calvijo et al. ([2015]), with some modifications (Wiegand et al., [2008]). Briefly, the MIC50 experiments comprised a liquid-inhibition growth assay in a sterile, untreated, 96-well flat-bottom tissue culture plate. […] The turbidity of the cultures was measured and adjusted spectrophotometrically to a McFarland standard of 0.5, and then diluted to a final concentration of 5 × 10^7 colony forming units (CFU) per well. […] Each concentration was evaluated in duplicate and each assay was performed in triplicate.
Wells containing Mueller Hilton broth with bacterial inoculum only served as bacterial-growth controls. […] The microplate was incubated for 24 h at 37°C, and growth inhibition was measured by monitoring the optical density at 620 nm (OD620). […]
To determine the MBC, an aliquot from each well of the MIC50 assay was spread onto Mueller Hilton agar. After 18 h at 37°C, the concentration that inhibited bacterial growth was determined. […]

Row | Compound | MIC [1] [µM] | MIC [2] [µM] | Fold (GM peptide / GM tetrameric peptide) [3] | Gm, geometric mean of MIC50 values [3] [µM] | Morphology of bacterial cells by SEM after treatment [4] | Morphology of bacterial cells by SEM after treatment [5] | Morphology of bacterial cells by SEM after treatment [6] | MIC [7] [µM] | MIC [8] [µM] | MIC50 [9] [µM]
1 | N=C(N)NCCC[C@H](NC(=O)[C@H](Cc1c[nH]c2ccccc12)NC(=O)[C@H](CCC(N)=O)NC(=O)[C@H](Cc1c[nH]c2ccccc12)NC(=O)[C@H](CCCNC(=N)N)NC(=O)[C@@H](N)CCCNC(=N)N)C(=O)NCCCC[C@H](NC(=O)[C@H](CCCNC(=N)N)NC(=O)[C@H](Cc1c[nH]c2ccccc12)NC(=O)[C@H](CCC(N)=O)NC(=O)[C@H](Cc1c[nH]c2ccccc12)NC(=O)[C@H](CCCNC(=N)N)NC(=O)[C@@H](N)CCCNC(=N)N)C(=O)NCCCCCC(N)=O [LfcinB (20–25)2] (I: H-RRWQWRK[Ahx]-NH2 / II: H-RRWQWR; amide I:7-II:C; N-terminus assumed) | 24.1 (≈ 52.9 µg/mL) | 9.0 (≈ 19.8 µg/mL) | 3.1 | 9.8 | random organization with morphological alterations | marked drop in population and severe morphological alterations | clear reduction in population and caused morphological alterations | 3.0 (≈ 6.59 µg/mL) | 7.3 (≈ 16 µg/mL) | 
2 | (RRWQWR)4K2Ahx2C2 (disulfide) [LfcinB (20–25)4, branched tetrameric peptide (RRWQWR)4K2Ahx2C2, two dimers linked by a cysteine disulfide bridge] | 5.9 | 12.0 | 1.0 | 3.1 | population decline, cell-size heterogeneity and cell-surface alterations in the form of protrusions | disintegrated and irregularly-shaped mucoid cells | very heterogeneous population and to alterations in the cell surface | 1.7 | 6.2 | 
3 | RRWQWR-NH2 [LfcinB (20–25), reference compound] |  |  |  |  |  |  |  |  |  | > 200

Source: paper PMC5840262, “Design, Synthesis and Evaluation of Branched RRWQWR-Based Peptides as Antibacterial Agents Against Clinically Relevant Gram-Positive and Gram-Negative Pathogens” (Frontiers in Microbiology, 2018)
